The text below walks through data of patent US5281604A, “Angiotensin II receptor blocking 2,3,6-substituted quinazolinones” (American Cyanamid Company, priority 1993, dated 1994).

SMILES strings stand for the structures.

The target of the experiment is T1, Angiotensin II Receptor (Bos taurus, UniProt P25104).
T1 construct: beef adrenal glands are processed as follows: fresh adrenal glands received on crushed ice are cleaned of fatty tissues; tissue Maxwell-Cohen (local slaughter house); host or cells: beef adrenal cortex, microsomal membranes (100,000×g pellet)
T1 sequence (P25104 1-359): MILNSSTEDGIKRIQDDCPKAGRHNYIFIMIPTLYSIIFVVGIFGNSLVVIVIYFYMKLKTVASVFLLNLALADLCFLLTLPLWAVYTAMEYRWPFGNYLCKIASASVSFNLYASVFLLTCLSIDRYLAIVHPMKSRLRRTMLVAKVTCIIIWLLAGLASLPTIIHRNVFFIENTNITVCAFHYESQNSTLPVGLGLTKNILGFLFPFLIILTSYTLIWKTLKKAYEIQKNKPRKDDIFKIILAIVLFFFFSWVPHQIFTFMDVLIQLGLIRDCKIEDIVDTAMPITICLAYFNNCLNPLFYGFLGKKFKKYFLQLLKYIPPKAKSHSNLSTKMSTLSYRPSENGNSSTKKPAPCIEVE
Briefly: Receptor Binding Assay: displacement of [125I](Sar1,Ile8)AngII from beef adrenal cortex microsomal membranes. As to conditions: 60 min room temperature. An excerpt: Beef adrenals are obtained from a local slaughter house (Maxwell-Cohen).
[^125 I](Sar^1,Ile^8)AngII, S.A. 2200 Ci/mmole, is purchased from Dupont (NEN®, Boston, Mass.). All unlabeled AngII analogs, Dimethylsulfoxide (DMSO), nucleotides, bovine serum albumin (BSA) are purchased from Sigma Chemical Co., St. Louis, Mo. U.S.A.
Approximately sixteen (16) to twenty (20) beef adrenal glands are processed as follows: fresh adrenal glands received on crushed ice are cleaned of fatty tissues and the tough membranes encapsulating the glands are removed and discarded. The brownish tissue forming the adrenal cortex is scraped off and finely minced with scissors before homogenization. Care is taken to avoid contamination with medullary tissue during dissection. The scraped cortices are suspended in twenty volumes of an ice-cold buffer medium consisting of 10 mM Tris.HCl (pH 7.4 at 22° C.) and containing 1.0 mM EDTA and 0.2M sucrose. Unless otherwise indicated, all subsequent operations are done at 4° C. […] The homogenate is centrifuged first at low speed (3,000×g) for 10 min. The resulting pellet is discarded and the supernatant fluid recentrifuged at 10,000×g for 15 minutes to give a P2 pellet. This P2 pellet is discarded and the liquid phase is carefully decanted off in clean centrifuge tubes and recentrifuged at high speed (100,000×g) for 60 min. The translucent final pellet is harvested and combined in a small volume (20-50.0 ml) of 50.0 mM Tris.HCl buffer, pH 7.2. A 100 ul aliquot is withdrawn and the protein content of the preparation is determined by the Lowry's method (Lowry, O. H., Rosebrough, N. F., Farr, A. L. and Randall, R. J., Protein measurement with Folin phenol reagent. J. Biol. Chem., […], 265-275, 1951). The pelleted membrane is reconstituted in 50.0 mM Tris.HCl buffer containing 0.1 mM of phenylmethylsulfonyl fluoride (PMSF) to give approximately a protein concentration of 2.5 mg per ml of tissue suspension. The membrane preparation is finally aliquoted in 1.0 ml volumes and stored at -70° C. until use in the binding assays.
The binding of [^125 I](Sar^1.Ile^8)AngII to microsomal membranes is initiated by the addition of reconstituted membranes (1:10 vols.) in freshly made 50.0 mM Tris.HCl buffer, pH 7.4 containing 0.25% heat inactivated bovine serum albumin (BSA): 80 ul membrane protein (10 to 20 ug/assay) to wells already containing 100 ul of incubation buffer (as described above) and 20 ul [^125 I](Sar^1,Ile^8)AmgII (Specific Activity, 2200 Ci/mmole) Non-specific binding is measured in the presence of 1.0 uM unlabeled (Sar^1,Ile^8)AngII, added in 20 ul volume. Specific binding for [^125 I](Sar^1,Ile^8) AngII is greater than 90%. In competition studies, experimental compounds are diluted in dimethylsulfoxide (DMSO) and added in 20 ul to wells before the introduction of tissue membranes. This concentration of DMSO is found to have no negative effects on the binding of [^ 125I] (Sar^1,Ile^8) AngII to the membranes. Assays are performed in triplicate. The wells are left undisturbed for 60 min. at room temperature. […] Presoaking the filter sheet in 0.1% polyethyleneimine in normal saline (PEI/Saline) greatly reduces the radioactivity retained by the filter blanks. […] The filters are removed from the filter grid and counted in a Parkard® Cobra Gamma Counder for 1 min. […] The binding data are analyzed by the non-linear interactive "LUNDON-1" program (LUNDON SOFTWARE Inc., Cleveland, Ohio U.S.A.).
On the technique in general: Displacement assays read how much labelled ligand stays bound in the presence of the test substance.

Broadly, the IC50 is the concentration that inhibits the measured activity by half. Low values mean higher potency, high ones lower potency. For the compound `CCCCc1nc2ccc([C@H]3OC[C@@H]4ON5[C@@H](CCC5(C)C)[C@@H]43)cc2c(=O)n1Cc1ccc(-c2ccccc2-c2nnn[nH]2)cc1` (relative stereo) [Example 8, (3α, 3aα, 8aβ, 8bα)'-2-Butyl-6-(6,6-dimethylocta hydrofuro[3,4-d][1,2-b]isoxazol-3-yl)-3[[2'-(1H-tetrazol-5-yl)[1,1'biphenyl]-4yl]methyl]-4(3H) quinazolinone], the IC50 turned out to be 37 nM.
